Results reported in patent US12679878B2, “CRF2 receptor agonists and their use in therapy” (SANOFI, priority 2020, dated 2026).
≈ marks a conversion by molar mass, not a printed value. Starred links: 1 amine or outer side, 2 acyl side, 3 side chain; linkers in the order of their positions; H or OH if unused. Non-standard residues stand in square brackets, D forms with d. Residues, ends and D or L forms follow the SMILES beside them. Groups on a side chain read outwards from the residue. *: point of attachment. C18 diacid = O=C(O)CCCCCCCCCCCCCCCCC(=O)*; C16 diacid = O=C(O)CCCCCCCCCCCCCCC(=O)*; γGlu = O=C(O)[C@H](CCC(=O)[*:2])N[*:1]; Palmitoyl = CCCCCCCCCCCCCCCC(=O)*; AEEA = NCCOCCOCC(=O)O

Tests used:
human CRF2α receptor [1] = target: T1, human CRF2α receptor (Homo sapiens, UniProt Q13324); assay: cAMP agonism at human CRF2 α receptor in TeloHEAC cells (Example 7); type: cell-based; settings: cAMP HTRF, TeloHEAC cells stably expressing human CRF2 α
T1 construct: expressed in transfected cells; host or cells: TeloHEAC
T1 sequence (Q13324 1-411): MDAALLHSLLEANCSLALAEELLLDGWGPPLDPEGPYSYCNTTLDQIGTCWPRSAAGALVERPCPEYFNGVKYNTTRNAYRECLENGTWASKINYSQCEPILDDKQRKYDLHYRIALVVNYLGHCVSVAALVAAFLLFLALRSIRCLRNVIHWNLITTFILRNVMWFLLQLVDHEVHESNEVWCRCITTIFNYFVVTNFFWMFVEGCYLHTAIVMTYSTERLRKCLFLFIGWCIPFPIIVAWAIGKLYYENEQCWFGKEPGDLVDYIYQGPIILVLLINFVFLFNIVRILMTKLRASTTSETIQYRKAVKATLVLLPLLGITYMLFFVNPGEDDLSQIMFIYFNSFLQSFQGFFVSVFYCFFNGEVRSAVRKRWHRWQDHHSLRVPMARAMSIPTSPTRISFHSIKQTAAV
Procedure, shortened: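 Steps: thaw and wash cells; suspend in 1×HBSS, 20 mM HEPES, 0 or 0.1% HSA, 2 mM IBMX; add compound, 30 min RT; lyse with HTRF reagents, 1 h; read 665/620 nm. EC50 calculated, E% versus 1000 nM UCN2.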

recombinant human CRF2 = target: T2, recombinant human CRF2 (Homo sapiens, UniProt Q13324); assay: CRF2a (h) agonist radioligand binding, [125]sauvagine, HEK cell membranes (Example 11); settings: for nH (Hill coefficient): competition with [125]sauvagine 0.1 nM
T2 construct: expressed in transfected cells; host or cells: HEK
T2 sequence (Q13324 1-411): T1 sequence (Q13324 1-411)
Procedure: Receptor binding of the compounds was assessed using a CRF2a (h) (agonist radioligand) assay.
HEK cells expressing recombinant human CRF2 were used as a source of receptor for membrane preparation.
IC50 values (concentration causing a half-maximal inhibition of control specific binding) and Hill coefficients (nH) were determined by non-linear regression analysis of the competition curves generated with mean replicate values using Hill equation curve fitting. The inhibition constants (Ki) were calculated using the Cheng Prusoff equation [Ki=IC50/(1+L/KD) where L is the concentration of radioligand in the assay, and KD is the affinity of the radioligand for the receptor). A Scatchard plot was used to determine the KD.

[2] = Solubility in buffer systems by UPLC-UV (Example 13); type: physicochemical
Procedure, shortened: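 The supernatant was diluted 1:10 and quantified by UPLC-UV peak area against a reference standard curve, correcting for sequence-based extinction coefficients.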

rat CRF2R α receptor = assay: cAMP agonism at rat CRF2R α receptor in A7R5 rat aortic smooth muscle cells (Example 8); type: cell-based; settings: cAMP HTRF, A7R5 rat aortic smooth muscle cell line, 0% HSA
Procedure, shortened: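 Thawed cryopreserved A7R5 cells in HBSS/20 mM HEPES (0 or 0.1% HSA) with 2 mM IBMX, 2000 cells/well, were exposed to compound for 30 min at room temperature. cAMP was read by HTRF (665/620 nm ratio) after 1 h with lysis reagents. Activity was normalised to 1000 nM urocortin 2 as 100%, and EC50 was taken as the concentration giving 50% of maximal activation.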

CRF1R receptor [3] = target: T3, CRF1R receptor (Homo sapiens, UniProt P34998); assay: cAMP activity at anti-target CRF1R, CRF1R-overexpression CHO cell line (Example 9); type: cell-based; settings: CHO
T3 construct: host or cells: CHO-K1 clone 2
T3 sequence (P34998 24-415): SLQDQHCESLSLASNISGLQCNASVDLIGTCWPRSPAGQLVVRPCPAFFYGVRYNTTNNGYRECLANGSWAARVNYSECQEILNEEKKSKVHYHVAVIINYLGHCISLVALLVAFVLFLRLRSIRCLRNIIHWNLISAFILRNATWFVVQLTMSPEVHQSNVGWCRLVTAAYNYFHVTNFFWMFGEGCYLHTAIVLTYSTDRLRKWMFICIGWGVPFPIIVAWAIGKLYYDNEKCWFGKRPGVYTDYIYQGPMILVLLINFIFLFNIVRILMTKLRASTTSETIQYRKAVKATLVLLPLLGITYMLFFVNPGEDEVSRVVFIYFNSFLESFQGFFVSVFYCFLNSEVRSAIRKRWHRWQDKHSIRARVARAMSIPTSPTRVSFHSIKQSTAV
Procedure, shortened: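 cAMP accumulation was read by HTRF after 30 min at room temperature of compound treatment. Cells were cryopreserved CHO cells overexpressing CRF1R, plated at 2000/well in IBMX (2 mM)-containing HBSS/HEPES buffer with 0 or 0.1% HSA. Activity was normalized to 1000 nM UCN2 as 100%.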

human CRF2α receptor [4] = target: T1, human CRF2α receptor; assay: cAMP agonism at human CRF2α receptor in TeloHEAC cells, FA modified peptides (Example 19.9); type: cell-based; settings: 0% HSA, relative to urocortin 2
Procedure, shortened: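 Efficacy and EC50 are referenced to 100 nM urocortin 2 as 100%, with cAMP measured as the 665/620 nm HTRF ratio after 1 h at room temperature. Compounds (0.5 mM DMSO stock, 16 twofold dilutions) acted 30 min at 37 °C on CRF2α-expressing TeloHEAC cells, buffer containing IBMX and 0% or 0.2% HSA.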

CRF1R receptor [5] = target: T3, CRF1R receptor; assay: cAMP activity at anti-target CRF1R, CHO-K1 cell line clone 2 (Example 19.10); type: cell-based; settings: ratio of CRF1 EC50 to CRF2 EC50
Procedure, shortened: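 A CRF1R-overexpressing CHO-K1 line (clone 2) was grown in F12/10% FBS/G418 and frozen in aliquots before use. The cAMP assay followed the preceding procedure, with 100% activation defined by Sauvagine at 100 nM.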

[6] = In vitro plasma stability, rat plasma (Example 19.11); type: in vitro ADME, Sprague Dawley rats; design: remaining at 2 h: dose or concentration left out as unconfirmed; settings: male, Sprague Dawley, rat, plasma, 37° C.
[7] = In vitro plasma stability, human plasma (Example 19.11); type: in vitro ADME; design: dose or concentration left out as unconfirmed; settings: 37° C.
[8] = Buffer solubility by LC-UV, pH 7.4 phosphate and pH 4.5 acetate (Example 19.11); type: physicochemical; settings: target 10 mg/mL
Procedure, shortened: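 Powders dissolved at a target 10 mg/mL in 100 mM phosphate pH 7.4 or 100 mM acetate pH 4.5, held 1 h at room temperature, then centrifuged. Diluted supernatant analysed by LC-UV; solubility from peak area against the same compound at 0.5 mg/ml in water:acetonitrile 1:1 with 0.1% formic acid.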

[9] = Chemical stability as % loss by LC-UV, 28 days 40° C. vs 5° C. (Example 19.11); type: physicochemical
[10] = 0% HSA, read-out: EC50 [nM], 0% HSA

SMILES | EC50 (human CRF2α receptor [1]; [10]) [nM] | nH (Hill coefficient) (recombinant human CRF2) | solubility at 1 h ([2]; pH 7.4, Solubility in Buffer C [mg/ml]) [µg/mL] | EC50 (human CRF2α receptor [1]; 0.1% HSA, read-out: EC50 [nM], 0.1% HSA) [nM] | EC50 (rat CRF2R α receptor) [nM] | Emax (CRF1R receptor [3]) [%] | Ki (recombinant human CRF2) [pM] | solubility at 1 h ([2]; Buffer B: 100 mM acetate buffer, pH 4.5, 2.7 mg/ml m-cresol, target 10 mg/ml, read-out: Solubility in Buffer B) [µg/mL] | solubility at 1 h ([2]; Buffer C: 100 mM phosphate buffer, pH 7.4, target 10 mg/ml, read-out: Solubility in Buffer C) [µg/mL] | EC50 (human CRF2α receptor [4]) [nM] | CRF1/CRF2 ratio (CRF1R receptor [5]) | remaining at 2 h [6] [%] | remaining at 2 h [7] [%] | solubility at 1 h ([8]; pH 4.5, 100 mM acetate buffer) [µg/mL] | solubility at 1 h ([8]; pH 7.4, 100 mM phosphate buffer) [µg/mL] | % loss (chemical stability) ([9]; pH 4.5) [%] | % loss (chemical stability) ([9]; pH 7.4) [%]
CCCCCCCCCCCCCCCC(=O)N[C@@H](CCC(=O)NCCCC[C@H](NC(=O)[C@H](CC(C)C)NC(=O)[C@H](CCCCN)NC(=O)[C@@H](NC(=O)[C@@H]1CCCN1C(=O)[C@@H](NC(=O)[C@H](CC(=O)O)NC(=O)[C@H](CC(C)C)NC(=O)[C@H](CO)NC(=O)[C@H](CC(C)C)NC(=O)[C@@H](NC(=O)[C@@H](N)[C@@H](C)CC)C(C)C)C(C)C)[C@@H](C)CC)C(=O)N[C@@H](CCCCN)C(=O)N[C@H](C(=O)N[C@@H](CC(C)C)C(=O)N[C@@H](CC(C)C)C(=O)N[C@@H](CCC(=O)O)C(=O)N[C@@H](CCC(N)=O)C(=O)N[C@@H](CCC(=O)O)C(=O)N[C@@H](CCCCN)C(=O)N[C@@H](CCC(N)=O)C(=O)N[C@@H](CCCCN)C(=O)N[C@@H](CCCCN)C(=O)N[C@@H](CCC(N)=O)C(=O)N[C@@H](CCCNC(=N)N)C(=O)N[C@@H](CCC(=O)O)C(=O)N[C@@H](CCC(N)=O)C(=O)N[C@@H](C)C(=O)N[C@@H](CCC(=O)O)C(=O)N[C@H](C(=O)N[C@@H](CC(N)=O)C(=O)N[C@@H](CCCCN)C(=O)N[C@@H](CCC(N)=O)C(=O)N[C@H](C(=O)N[C@@H](CC(C)C)C(=O)N[C@@H](C)C(=O)N[C@@H](CCC(N)=O)C(=O)N[C@H](C(N)=O)C(C)C)[C@@H](C)CC)[C@@H](C)O)[C@@H](C)CC)C(=O)O [compound 17] (H-IVLSLDVPIKLK([γGlu-Palmitoyl])KILLEQEKQKKQREQAETNKQILAQV-NH2; N-terminus assumed) | 0.02 | 1.5 | > 10700 |  |  |  |  |  |  |  |  |  |  |  |  |  | 
CC[C@H](C)[C@H](NC(=O)[C@H](CCC(N)=O)NC(=O)[C@H](CCC(=O)O)NC(=O)[C@H](CC(C)C)NC(=O)[C@H](CC(C)C)NC(=O)[C@H](CCC(N)=O)NC(=O)[C@H](CCCCN)NC(=O)[C@H](CC(N)=O)NC(=O)[C@H](CCCCN)NC(=O)[C@H](CCC(=O)O)NC(=O)[C@H](C)NC(=O)[C@H](CCC(N)=O)NC(=O)[C@H](CCC(N)=O)NC(=O)[C@H](CCCNC(=N)N)NC(=O)[C@H](CCC(=O)O)NC(=O)[C@H](CCCCN)NC(=O)[C@H](CCCCN)NC(=O)[C@H](CCC(N)=O)NC(=O)[C@H](CCCCN)NC(=O)[C@H](CCC(N)=O)NC(=O)[C@H](CCC(N)=O)NC(=O)[C@H](CCCCN)NC(=O)[C@H](CC(C)C)NC(=O)[C@H](CC(C)C)NC(=O)[C@@H](NC(=O)[C@H](CCC(N)=O)NC(=O)[C@H](CCCCNC(=O)COCCOCCNC(=O)COCCOCCNC(=O)CC[C@H](NC(=O)CCCCCCCCCCCCCCCCC(=O)O)C(=O)O)NC(=O)[C@@H](NC(=O)[C@H](CCCCN)NC(=O)[C@@H](NC(=O)[C@@H]1CCCN1C(=O)[C@@H](NC(=O)[C@H](CC(=O)O)NC(=O)[C@H](CC(C)C)NC(=O)[C@H](CO)NC(=O)[C@H](CC(C)C)NC(=O)[C@@H](NC(=O)[C@@H](N)Cc1ccccc1)[C@@H](C)O)C(C)C)[C@@H](C)O)[C@@H](C)CC)[C@@H](C)CC)C(N)=O [compound 51] (H-FTLSLDVPTKIK([AEEA-AEEA-γGlu-C18 diacid])QILLKQQKQKKERQQAEKNKQLLEQI-NH2; N-terminus assumed) | 0.32 | 0.8 |  | 21.4 | 0.87 | 3.38 | 4300 | > 8800 | > 7700 |  |  |  |  |  |  |  | 
CC[C@H](C)[C@H](N)C(=O)N[C@H](C(=O)N[C@@H](CC(C)C)C(=O)N[C@@H](CO)C(=O)N[C@@H](CC(C)C)C(=O)N[C@@H](CC(=O)O)C(=O)N[C@@H](C(=O)N1CCC[C@H]1C(=O)N[C@H](C(=O)N[C@@H](CCCCN)C(=O)N[C@@H](CC(C)C)C(=O)N[C@@H](CCCCNC(=O)CC[C@H](NC(=O)CCCCCCCCCCCCCCC(=O)O)C(=O)O)C(=O)N[C@@H](CCC(N)=O)C(=O)N[C@H](C(=O)N[C@@H](CC(C)C)C(=O)N[C@@H](CC(C)C)C(=O)N[C@@H](CCCCN)C(=O)N[C@@H](CCC(N)=O)C(=O)N[C@@H](CCC(=O)O)C(=O)N[C@@H](CCCNC(=N)N)C(=O)N[C@@H](CCC(N)=O)C(=O)N[C@@H](CCCCN)C(=O)N[C@@H](CCCCN)C(=O)N[C@@H](CCC(N)=O)C(=O)N[C@@H](CCCNC(=N)N)C(=O)N[C@@H](CCC(N)=O)C(=O)N[C@@H](CCC(N)=O)C(=O)N[C@@H](C)C(=O)N[C@@H](CCC(=O)O)C(=O)N[C@@H](CCCCN)C(=O)N[C@@H](CC(N)=O)C(=O)N[C@@H](CCCCN)C(=O)N[C@@H](CCC(N)=O)C(=O)N[C@H](C(=O)N[C@@H](CC(C)C)C(=O)N[C@@H](C)C(=O)N[C@@H](CCC(N)=O)C(=O)N[C@H](C(N)=O)C(C)C)[C@@H](C)CC)[C@@H](C)CC)[C@@H](C)CC)C(C)C)C(C)C [compound 192] (H-IVLSLD[dV]PIKLK([γGlu-C16 diacid])QILLKQERQKKQRQQAEKNKQILAQV-NH2; N-terminus assumed) |  |  |  |  |  |  |  |  |  | 0.83 | 68 | 109 | 95 | 8400 (≈ 1720 µM) | 7900 (≈ 1610 µM) | 0 | 49
